Laboratory results: patent US12559471B2, “1,5-dihydro-2,4-benzodiazepine-3-one derivative and application thereof” (JIANGSU NHWA PHARMACEUTICAL CO., LTD, priority 2020, dated 2026)
Read-outs that look alike come from different tables or passages of the source.

How the values were obtained:
[1] = biological target: 5-HT2C receptor (Rattus norvegicus (Rat), UniProt P08909)
Description: 2) Preparation of 5-HT2C Membrane
The rat cortex was taken out of a refrigerator at −80° C. and thawed spontaneously. The solution A was added, and the mixture was homogenized for 3-4 s at 4th gear for a total of 4 times and centrifuged at 50000 g for 25 min at 4° C. The supernatant was discarded, and the solution A was added into the precipitate. The mixture was mixed well using a vortex mixer and centrifuged at 50000 g for 25 min at 4° C. (repeated twice). The supernatant was discarded after the centrifugation, and the precipitate was stored at −80° C. for later use.
2) Competitive 5-HT2C Receptor Binding Assay
Step 1: the prepared membrane was suspended in the homogenate B to obtain a 210 mg/mL membrane suspension for later use.
Step 2: 100 μL of the membrane suspension was added into each reaction tube.
Step 3: 100 μL of the solution B was added into a total binding tube (TB), 100 μL of Ketanserin (final concentration: 1.0×10^−5 M) was added into a non-specific binding tube (NB), and 100 μL of test compound was added into each compound binding tube (CB).
Step 4: 10 μL of radioligand ^3H-Mesulergine was added into each reaction tube to reach a final concentration of 3 nM.
Step 5: each reaction tube was incubated at 37° C. for 25 min. After the reaction was completed, the binding ligands were rapidly filtered under reduced pressure, wherein the Whatman test paper GF/C was washed with 0.5% PEI solution 1 h in advance. The filter membrane was fully washed with cold Tris buffer solution, taken out and put into a 4 mL scintillation disc, which was then added with 1 mL toluene scintillation solution and shaken for mixing well.
Step 6: the scintillation disc was put into a liquid scintillation counter for counting.

[2] = biological target: 5-HT2A receptor (Homo sapiens (Human), UniProt P28223); test: Competitive 5-HT2A receptor binding assay (3H-Ketanserin, CHO-5-HT2A membrane); details: for 2C/2A: ratio of 5-HT2C Ki to 5-HT2A Ki
5-HT2A receptor, sequence (P28223 whole entry): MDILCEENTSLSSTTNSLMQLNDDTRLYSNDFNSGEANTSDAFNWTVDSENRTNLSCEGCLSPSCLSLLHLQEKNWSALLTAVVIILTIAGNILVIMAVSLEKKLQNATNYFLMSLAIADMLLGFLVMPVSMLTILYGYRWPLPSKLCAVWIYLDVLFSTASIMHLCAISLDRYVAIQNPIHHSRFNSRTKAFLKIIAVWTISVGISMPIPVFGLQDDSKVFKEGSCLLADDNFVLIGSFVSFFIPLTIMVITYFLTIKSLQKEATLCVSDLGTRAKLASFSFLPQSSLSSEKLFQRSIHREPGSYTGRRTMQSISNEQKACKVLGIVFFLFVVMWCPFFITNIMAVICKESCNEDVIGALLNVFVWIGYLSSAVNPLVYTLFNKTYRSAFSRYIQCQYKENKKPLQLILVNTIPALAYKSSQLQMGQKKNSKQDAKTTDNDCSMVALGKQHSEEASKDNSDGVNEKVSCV
Description: 1) Preparation of CHO-5-HT2A Receptor Membrane
The precipitate was collected, and the supernatant was discarded. The solution B was added into the precipitate. […] The supernatant was carefully discarded, and the solution B was added into the precipitate again. […] The precipitate obtained was stored at −80° C.
1) Competitive 5-HT2A Receptor Binding Assay
Step 2: 100 μL of the membrane preparation was added into each reaction tube.
After the filtration, the filter membrane was dried at 60° C. and added into a scintillation disc attached with a bottom membrane, which was then added with 40 μL of scintillation liquid, sealed with a top membrane, and left to stand.

[3] = system: DOI-induced head shaking behavior of mice; test: DOI-induced head shaking (head thrust) test in mice; format: in vivo; details: Mus musculus, intragastric, DOI 1 mg/kg i.p., 0-20 min, read-out: ED50 for inhibiting the DOI-induced head shaking behavior
Description: 1. Head Thrust Test in Mice
Mice were stratified according to body weight and then randomly divided into a model control group, a blank control group and drug administration groups. 1 h after the intragastric administration of a vehicle or a drug, the animals were placed in a beaker (with the diameter of 13 cm and the height of 19 cm) paved with fresh padding, and were injected with a modeling drug DOI ((±)-1-(2,5-dimethoxy-4-iodophenyl)-2-aminopropane hydrochloride or (±)-2,5-dimethoxy-4-iodoamphetamine hydrochloride) intraperitoneally at a dose of 1 mg/kg. The head shaking times of the mice during the 0-20 min after the intraperitoneal injection of DOI were recorded. The head shaking behavior is defined as a rapid rotational twitching or wet dog-like shaking of the mouse head, which is distinguished from normal grooming or exploring behavior.

[4] = system: MK-801-induced high activity behavior of mice; test: Dizocilpine (MK-801)-induced high activity test in mice; format: in vivo; details: Mus musculus, 1 h, intragastric, MK-801 0.3 mg/kg i.p., 60 min, read-out: ED50 for inhibiting the MK-801-induced high activity behavior
Description: 2. Dizocilpine (MK-801)-Induced High Activity Test in Mice 2.1 Test Method
Mice were stratified according to body weight and then randomly divided into a model control group, a blank control group and drug administration groups. After the administration of a test substance (or a control substance), the mice were placed into an autonomous activity test box (a black polyethylene box with the specification of 29 cm×29 cm×30 cm) for adaptation, and injected with MK-801 at 0.3 mg/kg intraperitoneally 1 h after the intragastric administration. The mice were then placed into the autonomous activity test box for video recording for 60 min. Video analysis was performed after the video recording to evaluate the activity of the mice.

[5] = read-out: 5-HT2C (Ki value), rat cortex membrane, 3H-Mesulergine
[6] = CHO-5-HT2A membrane, 3H-Ketanserin, read-out: 5-HT2A (Ki value)

5-HT2C receptor, sequence (P08909 33-460): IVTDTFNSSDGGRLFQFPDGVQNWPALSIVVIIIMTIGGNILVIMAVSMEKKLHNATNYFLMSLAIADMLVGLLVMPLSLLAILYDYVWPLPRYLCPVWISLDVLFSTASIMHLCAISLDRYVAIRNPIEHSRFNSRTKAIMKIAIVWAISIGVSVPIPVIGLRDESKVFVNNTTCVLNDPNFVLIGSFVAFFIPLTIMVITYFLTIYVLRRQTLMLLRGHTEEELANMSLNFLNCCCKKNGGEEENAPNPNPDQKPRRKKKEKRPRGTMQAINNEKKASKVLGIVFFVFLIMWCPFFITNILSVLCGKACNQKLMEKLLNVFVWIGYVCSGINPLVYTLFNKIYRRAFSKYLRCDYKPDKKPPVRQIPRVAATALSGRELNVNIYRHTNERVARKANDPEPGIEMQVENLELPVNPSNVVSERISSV

SMILES	Ki [1, 5] [nM]	Ki [2, 6] [nM]	2C/2A [2]	other results
CC(C)CNc1ccc(CN2Cc3ccc(F)cc3CN(C3CCN(C)CC3)C2=O)cc1 [NH-K-A19007, 8-fluoro-2-(1-methylpiperidin-4-yl)-4-[[4-(2-methylpropylamino)phenyl]methyl]-1,5-dihydro-2,4-benzodiazepine-3-one]	27.3	2.72	10.040	
CC(C)Cc1ccc(CN2Cc3ccc(F)cc3CN(C3CCN(C)CC3)C2=O)cc1 [NH-K-A19008, 8-fluoro-2-(1-methylpiperidin-4-yl)-4-[[4-(2-methylpropyl)phenyl]methyl]-1,5-dihydro-2,4-benzodiazepine-3-one]	42.4	5.29	7.999	
COc1ccc(CN2Cc3ccc(F)cc3CN(C3CCN(C)CC3)C2=O)cc1 [NH-K-A19009, 8-fluoro-2-(1-methylpiperidin-4-yl)-4-[(4-methoxyphenyl)methyl]-1,5-dihydro-2,4-benzodiazepine-3-one]	2.03	2.99	0.679	
CN1CCC(N2Cc3cc(F)ccc3CN(Cc3ccc(CC(C)(C)O)cc3)C2=O)CC1 [NH-K-A19010, 7-fluoro-2-[[4-(2-hydroxy-2-methylpropyl)phenyl]methyl]-4-(1-methylpiperidin-4-yl)-1,5-dihydro-2,4-benzodiazepin-3-one]	18.2	20.1	0.91	
CC(C)Oc1ccc(CN2Cc3ccc(F)cc3CN(C3CCN(C)CC3)C2=O)c(F)c1 [NH-K-A19011, 8-fluoro-2-(1-methylpiperidin-4-yl)-4-[[(2-fluoro-4-isopropoxy)phenyl]methyl]-1,5-dihydro-2,4-benzodiazepine-3-one]		12.7		
CC(C)Oc1ccc(CN2Cc3ccc(F)cc3CN(C3CCN(C)CC3)C2=O)cc1F [NH-K-A19012, 8-fluoro-2-(1-methylpiperidin-4-yl)-4-[[(3-fluoro-4-isopropoxy)phenyl]methyl]-1,5-dihydro-2,4-benzodiazepine-3-one]	9.36	0.947	9.882	ED50 [3]: 0.3 mg/kg; ED50 [4]: 3.73 mg/kg
CC(C)Oc1ccc(CN2Cc3ccc(F)cc3CN(C3CCN(C)CC3)C2=O)cn1 [NH-K-A19013, 8-fluoro-2-(1-methylpiperidin-4-yl)-4-[[(6-isopropoxy)pyridin-3-yl]methyl]-1,5-dihydro-2,4-benzodiazepine-3-one]		9.78		
CC(C)COc1ccc(CN2Cc3ccc(F)cc3CN([C@H]3CCN(C)C[C@H]3F)C2=O)cc1 [NH-K-A19014-0, (3R,4S)-8-fluoro-2-(1-methyl-3-fluoropiperidin-4-yl)-4-[[4-(2-methylpropoxy)phenyl]methyl]-1,5-di hydro-2,4-benzodiazepine-3-one]		4.19	0.049	Ki [1]: 0.2 nM
CC(C)COc1ccc(CN2Cc3ccc(F)cc3CN([C@H]3CCN(C)C[C@@H]3F)C2=O)cc1 [NH-K-A19014-0A, (3S,4S)-8-fluoro-2-(1-methyl-3-fluoropiperidin-4-yl)-4-[[4-(2-methylpropoxy)phenyl]methyl]-1,5-dihydro-2,4-benzodiazepine-3-one]		0.002	16029.47	Ki [1]: 26.1 nM
CC(C)COc1ccc(CN2Cc3ccc(F)cc3CN(C3CCN(C)C3)C2=O)cc1 (stereo not drawn) [NH-K-A19015]				Ki [1]: 0.41 nM; Ki [2]: 1.69 nM
CC(C)COc1ccc(CN2Cc3ccc(F)cc3CC3(CCN(C)CC3)C2=O)cc1 [NH-K-A19019, 7-fluoro-1′-methyl-2-[[4-(2-methylpropoxy)phenyl]methyl]-1,2-dihydrospiro[benzo[c]azepine-4,4′-piperidine]-3(5H)-one]		53.3		
CC(C)COc1ccc(CN2Cc3ccccc3CN(C3CCN(C)CC3)C2=O)cc1 [NH-K-A19020, 2-(1-methylpiperidin-4-yl)-4-[[4-(2-methylpropoxy)phenyl]methyl]-1,5-dihydro-2,4-benzodiazepine-3-one]		1.74		
CN1CCC(N2Cc3ccc(F)cc3CN(Cc3ccc(OC4CC4)cc3)C2=O)CC1 [NH-K-A19022, 4-[(4-cyclopropoxyphenyl)methyl]-7-fluoro-2-(1-methylpiperidin-4-yl)-1,5-dihydro-2,4-benzodiaze pine-3-one]	1.33	0.15	8.76	
CC(C)COc1ccc(CN2Cc3cc(F)c(F)cc3CN(C3CCN(C)CC3)C2=O)cc1 [NH-K-A20001, 7,8-difluoro-2-(4-isobutoxybenzyl)-4-(1-methylpiperidin-4-yl)-1,2,4,5-tetrahydro-3H-benzo[e][1,3]diazepin-3-one]		5.98		
CC(C)COc1ccc(CN2Cc3cc(Cl)ccc3CN(C3CCN(C)CC3)C2=O)cc1 [NH-K-A190017, 7-chloro-2-(1-methylpiperidin-4-yl)-4-[[4-(2-methylpropoxy)phenyl]methyl]-1,5-dihydro-2,4-benzo diazepine-3-one]	486	1.63	298.694	
